The test deals with shaved mice. The test can be described thus: Hair grow-promoting effect in shaved mice (method of Kubo et al.), hair grow score. The note with it: 0.2 ml of 0.2 % solution in 75 % ethanol applied to shaved back once a day, score 0-4, 15 mice. The class given is in vivo, ddy male mice. On the procedure:
According to the method of Kubo et al. (Yakugaku Zasshi 108 (10) P971-978 (1988)), an experiment was conducted using six weeks old ddy male mice. Depilatory cream was applied to the back of mice, and after 8 minutes, wiped off with absorbent cotton soaked with hot water at 40°C to remove hair at 4 to 5 cm². The next day, those mice with no injury and undepilated hair were selected and used as shaved mice. Each experimental group consisted of 15 mice.
Each 0.2 ml of a solution to be tested and a control solution were uniformly applied to the shaved part of mice with a brush once a day for 18 days.
Evaluation of the hair grow-promoting effect was conducted by evaluating a hair grow score at two day intervals for 18 days and testing a significance difference with Willcoxon Rank sum test. The following hair grow score standards were employed: 0: Completely no growth of hair is observed with naked eye 1: Recovery up to 25 % of normal state 2: Recovery up to 50 % of normal state 3: Recovery up to 75 % of normal state 4: Recovery up to nearly normal state and each standard score were further subdivided into three stages and hair grow score was obtained for each mouse.
The samples used for testing for effect were as follows: Control: 75 % etanol solution Preparation of the present invention: 0.2 % 6-[4-(1-cyclohexyl-1,2,3,4-tetrazol-5-yl)butoxy]-3,4-dihydrocarbostyril in 75 % ethanol solution The results are shown in Table 1.

For `O=C1CCc2cc(OCCCCc3nnnn3C3CCCCC3)ccc2N1` [Prep. of invention, 6-[4-(1-cyclohexyl-1,2,3,4-tetrazol-5-yl)butoxy]-3,4-dihydrocarbostyril], the “mean hair grow score ± S.E.” value is, setting by setting: (day 8 of treatment) 0.12±0.07; (day 10 of treatment) 0.17±0.07; (day 12 of treatment) 0.72±0.17; (day 14 of treatment) 1.45±0.23; (day 16 of treatment) 2.25±0.27; (day 18 of treatment) 2.58±0.28.

These data come from patent EP0463173B1, “HAIR TONIC AND DRESSING COMPOSITION” (OTSUKA PHARMACEUTICAL CO., LTD., priority 1990, dated 1991).
